PubChem BioAssay (NCI)
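Results reflect a 48-hour exposure of cells in 96-well plates to compound at five concentrations. TGI is the concentration that stops growth completely.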

What was measured:
Test in all cases: NCI-60 cell line screen, 48 h
786-0 renal = system: 786-0 renal
A549 NSCLC = system: A549 NSCLC
ACHN renal = system: ACHN renal
BT-549 breast = system: BT-549 breast
CAKI-1 renal = system: CAKI-1 renal
CCRF-CEM leukemia = system: CCRF-CEM leukemia
COLO 205 colon = system: COLO 205 colon
DU-145 prostate = system: DU-145 prostate
EKVX NSCLC = system: EKVX NSCLC
HCC-2998 colon = system: HCC-2998 colon
HCT-116 colon = system: HCT-116 colon
HCT-15 colon = system: HCT-15 colon
HL-60(TB) leukemia = system: HL-60(TB) leukemia
HOP-62 NSCLC = system: HOP-62 NSCLC
HOP-92 NSCLC = system: HOP-92 NSCLC
HS 578T breast = system: HS 578T breast
HT29 colon = system: HT29 colon
IGROV1 ovarian = system: IGROV1 ovarian
K-562 leukemia = system: K-562 leukemia
KM12 colon = system: KM12 colon
LOX IMVI melanoma = system: LOX IMVI melanoma
M14 melanoma = system: M14 melanoma
MCF7 breast = system: MCF7 breast
MDA-MB-231 breast = system: MDA-MB-231 breast
MDA-MB-435 = system: MDA-MB-435
MDA-N = system: MDA-N
MOLT-4 leukemia = system: MOLT-4 leukemia
NCI-H226 lung = system: NCI-H226 lung
NCI-H460 lung = system: NCI-H460 lung
OVCAR-4 ovarian = system: OVCAR-4 ovarian
OVCAR-5 ovarian = system: OVCAR-5 ovarian
PC-3 prostate = system: PC-3 prostate
RPMI-8226 leukemia = system: RPMI-8226 leukemia
RXF 393 renal = system: RXF 393 renal
SF-268 CNS = system: SF-268 CNS
SF-295 CNS = system: SF-295 CNS
SF-539 CNS = system: SF-539 CNS
SK-MEL-2 melanoma = system: SK-MEL-2 melanoma
SK-MEL-28 melanoma = system: SK-MEL-28 melanoma
SK-MEL-5 melanoma = system: SK-MEL-5 melanoma
SK-OV-3 ovarian = system: SK-OV-3 ovarian
SN12C renal = system: SN12C renal
SNB-19 CNS = system: SNB-19 CNS
SNB-75 CNS = system: SNB-75 CNS
SR leukemia = system: SR leukemia
SW-620 colon = system: SW-620 colon
T-47D breast = system: T-47D breast
TK-10 renal = system: TK-10 renal
U251 CNS = system: U251 CNS
UACC-257 melanoma = system: UACC-257 melanoma
UACC-62 melanoma = system: UACC-62 melanoma
UO-31 renal = system: UO-31 renal
A498 renal = system: A498 renal
NCI-H23 lung = system: NCI-H23 lung
NCI/ADR-RES ovarian = system: NCI/ADR-RES ovarian
OVCAR-3 ovarian = system: OVCAR-3 ovarian
OVCAR-8 ovarian = system: OVCAR-8 ovarian

CCN(CC)c1ccc2cc(-c3csc(C)n3)c(=O)oc2c1 showed a TGI (786-0 renal) greater than 100 µM, a TGI (A549 NSCLC) greater than 100 µM and a TGI (ACHN renal) greater than 100 µM. The TGI (BT-549 breast) was greater than 100 µM, the TGI (CAKI-1 renal) was greater than 100 µM and the TGI (CCRF-CEM leukemia) was greater than 100 µM. It also gave a TGI (COLO 205 colon) greater than 100 µM, a TGI (DU-145 prostate) greater than 100 µM and a TGI (EKVX NSCLC) greater than 100 µM. The TGI (HCC-2998 colon) was greater than 100 µM, the TGI (HCT-116 colon) was greater than 100 µM and the TGI (HCT-15 colon) was greater than 100 µM. The TGI (HL-60(TB) leukemia) was greater than 100 µM, the TGI (HOP-62 NSCLC) was 94.6 µM and the TGI (HOP-92 NSCLC) was 92.7 µM. It also gave a TGI (HS 578T breast) of 67.5 µM, a TGI (HT29 colon) greater than 100 µM and a TGI (IGROV1 ovarian) greater than 100 µM. For the same compound, the TGI (K-562 leukemia) was greater than 100 µM, the TGI (KM12 colon) was greater than 100 µM and the TGI (LOX IMVI melanoma) was greater than 100 µM. For the same compound, the TGI (M14 melanoma) was greater than 100 µM, the TGI (MCF7 breast) was greater than 100 µM and the TGI (MDA-MB-231 breast) was greater than 100 µM. It also gave a TGI (MDA-MB-435) greater than 100 µM, a TGI (MDA-N) greater than 100 µM and a TGI (MOLT-4 leukemia) greater than 100 µM. It also gave a TGI (NCI-H226 lung) greater than 100 µM, a TGI (NCI-H460 lung) greater than 100 µM and a TGI (OVCAR-4 ovarian) greater than 100 µM. For the same compound, the TGI (OVCAR-5 ovarian) was greater than 100 µM, the TGI (PC-3 prostate) was greater than 100 µM and the TGI (RPMI-8226 leukemia) was greater than 100 µM. The TGI (RXF 393 renal) was greater than 100 µM, the TGI (SF-268 CNS) was greater than 100 µM and the TGI (SF-295 CNS) was greater than 100 µM. It also gave a TGI (SF-539 CNS) greater than 100 µM, a TGI (SK-MEL-2 melanoma) greater than 100 µM and a TGI (SK-MEL-28 melanoma) greater than 100 µM. For the same compound, the TGI (SK-MEL-5 melanoma) was greater than 100 µM, the TGI (SK-OV-3 ovarian) was greater than 100 µM and the TGI (SN12C renal) was greater than 100 µM. For the same compound, the TGI (SNB-19 CNS) was greater than 100 µM, the TGI (SNB-75 CNS) was 9.42 µM and the TGI (SR leukemia) was greater than 100 µM. For the same compound, the TGI (SW-620 colon) was greater than 100 µM, the TGI (T-47D breast) was greater than 100 µM and the TGI (TK-10 renal) was greater than 100 µM. The TGI (U251 CNS) was greater than 100 µM, the TGI (UACC-257 melanoma) was greater than 100 µM and the TGI (UACC-62 melanoma) was greater than 100 µM. For the same compound, the TGI (UO-31 renal) was greater than 100 µM.

C=C(C)CCN(C(=O)OC(C)(C)C)c1cc(C(C)C)co1 gave a TGI (786-0 renal) greater than 100 µM, a TGI (A498 renal) greater than 100 µM and a TGI (A549 NSCLC) greater than 100 µM. The TGI (ACHN renal) was greater than 100 µM, the TGI (BT-549 breast) was greater than 100 µM and the TGI (CAKI-1 renal) was greater than 100 µM. For the same compound, the TGI (CCRF-CEM leukemia) was greater than 100 µM, the TGI (COLO 205 colon) was greater than 100 µM and the TGI (DU-145 prostate) was greater than 100 µM. For the same compound, the TGI (EKVX NSCLC) was greater than 100 µM, the TGI (HCC-2998 colon) was greater than 100 µM and the TGI (HCT-116 colon) was greater than 100 µM. The TGI (HCT-15 colon) was greater than 100 µM, the TGI (HL-60(TB) leukemia) was 43.8 µM and the TGI (HOP-62 NSCLC) was greater than 100 µM. The TGI (HOP-92 NSCLC) was 61 µM, the TGI (HT29 colon) was greater than 100 µM and the TGI (IGROV1 ovarian) was greater than 100 µM. For the same compound, the TGI (K-562 leukemia) was greater than 100 µM, the TGI (KM12 colon) was greater than 100 µM and the TGI (LOX IMVI melanoma) was 96.7 µM. For the same compound, the TGI (M14 melanoma) was greater than 100 µM, the TGI (MCF7 breast) was greater than 100 µM and the TGI (MDA-MB-231 breast) was greater than 100 µM. For the same compound, the TGI (MDA-MB-435) was greater than 100 µM, the TGI (MDA-N) was greater than 100 µM and the TGI (MOLT-4 leukemia) was 98 µM. The TGI (NCI-H226 lung) was greater than 100 µM, the TGI (NCI-H23 lung) was greater than 100 µM and the TGI (NCI/ADR-RES ovarian) was greater than 100 µM. For the same compound, the TGI (OVCAR-3 ovarian) was greater than 100 µM, the TGI (OVCAR-4 ovarian) was greater than 100 µM and the TGI (OVCAR-5 ovarian) was greater than 100 µM. It also gave a TGI (OVCAR-8 ovarian) greater than 100 µM, a TGI (PC-3 prostate) of 99.6 µM and a TGI (RPMI-8226 leukemia) of 57.3 µM. The TGI (SF-268 CNS) was 55.7 µM, the TGI (SF-295 CNS) was greater than 100 µM and the TGI (SF-539 CNS) was greater than 100 µM. It also gave a TGI (SK-MEL-2 melanoma) greater than 100 µM, a TGI (SK-MEL-28 melanoma) greater than 100 µM and a TGI (SK-MEL-5 melanoma) greater than 100 µM. The TGI (SK-OV-3 ovarian) was greater than 100 µM, the TGI (SN12C renal) was greater than 100 µM and the TGI (SNB-19 CNS) was greater than 100 µM. The TGI (SR leukemia) was greater than 100 µM, the TGI (SW-620 colon) was greater than 100 µM and the TGI (T-47D breast) was greater than 100 µM. For the same compound, the TGI (TK-10 renal) was greater than 100 µM, the TGI (U251 CNS) was greater than 100 µM and the TGI (UACC-257 melanoma) was greater than 100 µM. It also gave a TGI (UACC-62 melanoma) greater than 100 µM and a TGI (UO-31 renal) greater than 100 µM.
